Measurements taken from paper PMC8942544, “Design and synthesis of benzodiazepines as brain penetrating PARP-1 inhibitors” (Journal of Enzyme Inhibition and Medicinal Chemistry, 2022).
Like-named read-outs stand apart in the source and are kept apart here.

What was measured:
[1] = tested on: MX-1 (BRCA1 mutant tumour cells); assay: MTT antiproliferation assay, MX-1 cells; assay type: cell-based; details: Homo sapiens, MX1, breast cancer cell line, 48 h
Protocol: (§1) Due to their acceptable inhibition rates (more than 50%) at the concentration of 50 nM, compounds H34, H42, H48, H50, and H52 were selected to evaluate the proliferation inhibition activity on several cancer cells, including BRCA1 mutant tumour cells (MX-1) and BRCA1 wild type tumour cells (MCF7 and A549).
(§2) The MTT assay was performed to detect the sensitivity of cells to anticancer drugs in vitro. The human A549, MCF7, and U87 tumour cells, as well as human BRCA mutant tumour cells (MX-1), were tested in this study. The cell culture was carried out in accordance with routine operations or instructions. Briefly, 5,000 cells were seeded in each well of a 96-well plate. After cell attachment to the bottom of the well, different concentrations of tested compounds were added into designated wells. After 48 h of incubation, 20 µL of MTT solution (5 mg/mL) were added to each well for cell staining. After 4 h, the media were removed and 150 µL of DMSO were added to each well. Finally, the absorbance was determined at 570 nm using a multifunctional microplate reader (TECAN).

[2] = target: PARP-2 (Homo sapiens, UniProt Q9UGN5); assay: PARP-2 enzyme inhibition (IC50); assay type: biochemical
Source text: PARP-2 is the closest homolog of PARP-1, which also resides in the nucleus and functions similarly to PARP-1.

[3] = tested on: A549 cells; assay: MTT antiproliferation assay, A549 cells; assay type: cell-based; details: Homo sapiens, lung cancer cell line, 48 h
Protocol: as §1, §2

[4] = tested on: glioblastoma (U87) cells; assay: Antiproliferation in combination with TMZ, U87 cells; assay type: cell-based, human; details: combination with Temozolomide
Protocol: as §2

[5] = tested on: MDCK cells monolayer model; details: dog, 3 h, 10 µM
[6] = Brain/plasma pharmacokinetic study in vivo; details: mouse, intravenous, ICR mice
Protocol: Further, the brain permeability of representative compounds was evaluated in ICR mice. After tail vein injection of a 1.5 mg/kg dose, the concentrations of the compounds in the brain and plasma were measured after 5 min and 60 min of administration, and the brain/plasma (B/P) ratio was calculated. […] On the contrary, compounds H42 and H52 performed high B/P ratios, which were consistent with our initial expectations. Among them, the B/P ratio of H42 reached balance rapidly in vivo and maintained above 3, while the proportion of H52 in the brain increased gradually and reached 4.41 at 60 min.
All animal experiments were complied with the ARRIVE guidelines and were carried out in accordance with the U.K. Animals Act, 1986 and associated guidelines. The ICR mice were used in plasma–brain distribution assay of compounds. After tail vein injection of a 1.5 mg/kg dose, the concentrations of the compounds in the brain and plasma were measured after 5 min and 60 min of administration, and the brain/plasma (B/P) ratio was calculated. The samples of plasma and brain tissue were prepared as previously reported. An established LC-MS/MS method was used for determining the concentration of representative compounds in plasma and brain tissue.

[7] = target: T1, PARP-1 (Homo sapiens, UniProt P09874); assay: PARP-1 enzyme inhibition assay (BPS Bioscience PARP Colorimetric Assay Kit); assay type: biochemical
T1 construct: purchased BPS Bioscience 80580
Protocol: All target compounds were evaluated for PARP-1 enzyme inhibition activity at the concentration of 50 nM determined by previous pre-experiments.
The ability of the compounds to inhibit PARP-1 enzyme activity was assessed using BPS Bioscience's PARP Colorimetric Assay Kit (BPS Bioscience, Catalog # 80580). PARP-1 is known to catalyse the NAD-dependent addition of poly(ADP-ribose) to histones. The PARP-1 assay kit comes in a convenient 96-well format, with purified PARP-1 enzyme, histone mixture, activated DNA, and PARP-1 assay buffer. The key to the PARP-1 Colorimetric Activity Assay is the biotinylated substrate. With this kit, only three simple steps are required for PARP-1 reactions. First, histone proteins are coated on a 96-well plate. Next, the PARP-1 biotinylated substrate is incubated with an assay buffer that contains the PARP-1 enzyme. Finally, the plate is treated with streptavidin-HRP followed by the addition of the colorimetric HRP substrate to produce colour that can then be measured using a UV/Vis spectrophotometer microplate reader. IC50 values were calculated using GraphPad Prism5 software.

[8] = in vitro; details: dog, MDCK
[9] = tested on: MCF7 cells; assay: MTT antiproliferation assay, MCF7 cells; assay type: cell-based; details: Homo sapiens, breast cancer cell line, 48 h
Protocol: as §1, §2

T1 sequence (P09874 whole entry): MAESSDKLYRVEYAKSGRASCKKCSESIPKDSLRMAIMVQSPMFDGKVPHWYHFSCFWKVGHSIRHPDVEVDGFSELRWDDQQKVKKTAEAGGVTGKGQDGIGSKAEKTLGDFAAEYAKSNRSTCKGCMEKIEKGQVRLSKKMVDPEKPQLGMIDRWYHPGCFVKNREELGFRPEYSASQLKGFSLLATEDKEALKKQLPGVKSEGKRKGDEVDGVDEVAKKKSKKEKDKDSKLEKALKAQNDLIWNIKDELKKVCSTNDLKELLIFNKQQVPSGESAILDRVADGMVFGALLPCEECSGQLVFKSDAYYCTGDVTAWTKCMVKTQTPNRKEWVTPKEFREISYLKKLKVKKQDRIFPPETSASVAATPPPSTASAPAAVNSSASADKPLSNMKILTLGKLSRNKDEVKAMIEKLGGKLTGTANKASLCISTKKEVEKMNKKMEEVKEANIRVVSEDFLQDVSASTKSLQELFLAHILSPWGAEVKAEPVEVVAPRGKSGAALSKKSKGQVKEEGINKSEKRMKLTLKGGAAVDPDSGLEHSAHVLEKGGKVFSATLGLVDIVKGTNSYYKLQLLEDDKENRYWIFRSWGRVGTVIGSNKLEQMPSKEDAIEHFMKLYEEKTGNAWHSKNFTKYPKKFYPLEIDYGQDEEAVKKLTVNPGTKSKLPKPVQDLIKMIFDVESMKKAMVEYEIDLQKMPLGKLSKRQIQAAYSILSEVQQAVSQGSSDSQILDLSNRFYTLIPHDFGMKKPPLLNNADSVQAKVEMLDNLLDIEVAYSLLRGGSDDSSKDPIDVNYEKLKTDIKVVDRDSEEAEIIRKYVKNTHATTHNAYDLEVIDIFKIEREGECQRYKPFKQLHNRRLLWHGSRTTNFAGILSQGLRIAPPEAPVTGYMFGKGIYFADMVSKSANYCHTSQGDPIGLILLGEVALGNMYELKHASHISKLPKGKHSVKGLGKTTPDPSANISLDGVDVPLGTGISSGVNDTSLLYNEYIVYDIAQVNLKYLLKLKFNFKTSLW
Sequence of PARP-2 (Q9UGN5 whole entry): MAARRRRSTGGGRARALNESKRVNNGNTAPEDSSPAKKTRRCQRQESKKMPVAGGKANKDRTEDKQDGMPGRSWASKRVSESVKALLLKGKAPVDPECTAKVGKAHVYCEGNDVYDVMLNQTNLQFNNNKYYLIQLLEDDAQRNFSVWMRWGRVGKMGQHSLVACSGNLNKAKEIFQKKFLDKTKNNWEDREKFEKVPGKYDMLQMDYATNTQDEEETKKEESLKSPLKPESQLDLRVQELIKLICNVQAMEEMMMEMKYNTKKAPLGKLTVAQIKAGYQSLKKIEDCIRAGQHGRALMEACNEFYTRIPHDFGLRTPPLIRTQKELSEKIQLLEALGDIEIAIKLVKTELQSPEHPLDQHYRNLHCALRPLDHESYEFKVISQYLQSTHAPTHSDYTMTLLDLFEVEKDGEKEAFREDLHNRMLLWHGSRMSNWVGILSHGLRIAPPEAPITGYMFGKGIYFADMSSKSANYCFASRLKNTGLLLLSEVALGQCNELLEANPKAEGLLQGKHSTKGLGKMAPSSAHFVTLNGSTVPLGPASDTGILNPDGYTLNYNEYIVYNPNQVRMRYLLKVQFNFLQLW

Structure (SMILES): COc1ccc(-c2ccc(C3=Nc4ccccc4C(=O)NC3)cc2)cc1 [Compound H42, 2-(4′-Methoxy-[1,1′-biphenyl]-4-yl)-3,4-dihydro-5H-benzo[e][1,4]diazepin-5-one]
- IC50 [1]: 31.4 ± 2.8 µM
- IC50 [2]: 0.0471 µM
- IC50 [3]: 162 ± 18.4 µM
- Sensitisation effect in combination with TMZ [4]: significant sensitisation effects
- Capical [5]: 1.62 ± 0.37 µg/mL
- Cbasolateral [5]: 0.33 ± 0.05 µg/mL
- concentration at 5 min ([6]; brain, 5 min after tail vein injection of 1.5 mg/kg, read-out: Brain): 1820 ± 324 ng/g
- concentration at 60 min ([6]; brain, 60 min after tail vein injection of 1.5 mg/kg, read-out: Brain): 51.8 ± 13.6 ng/g
- Kp at 5 min ([6]; brain/plasma, 5 min after tail vein injection of 1.5 mg/kg, read-out: B/P ratio): 3.28 ± 0.28
- Kp at 60 min ([6]; brain/plasma, 60 min after tail vein injection of 1.5 mg/kg, read-out: B/P ratio): 3.58 ± 0.53
- Kp ([6]; brain/plasma, maintained over 5 and 60 min, 1.5 mg/kg tail vein, read-out: B/P ratio): > 3
- concentration at 5 min ([6]; plasma, 5 min after tail vein injection of 1.5 mg/kg, read-out: Plasma): 555 ± 104 ng/mL
- concentration at 60 min ([6]; plasma, 60 min after tail vein injection of 1.5 mg/kg, read-out: Plasma): 15.1 ± 5.44 ng/mL
- IC50 [7]: 0.0403 µM
- inhibition at 0.05 µM ([7]; compound concentration 50 nM, three independent tests): > 50%
- Papp A→B at 3 h, 10 µM [8]: 16.1 ± 1.08 ×10⁻⁶ cm/s
- IC50 [9]: 39.4 ± 4.2 µM
